Literature values in PMC5082644 (Molecular Vision, 2016).

Tested on: complement activation / C5b-9n (MAC) deposition in human fetal RPE cell cultures
Conditions: among peptides with polar dipeptides added at the N-terminus

In the case of “Ac-RSI[CV(meW)QDWGAHRC]T-NH2 (disulfide)”, the “Efficacy in the human RPE cell-based assay” value is given as “most efficacious”.
